# Target: T1, MAGL protein (Homo sapiens, UniProt Q99685)
# T1 sequence (Q99685 1-303): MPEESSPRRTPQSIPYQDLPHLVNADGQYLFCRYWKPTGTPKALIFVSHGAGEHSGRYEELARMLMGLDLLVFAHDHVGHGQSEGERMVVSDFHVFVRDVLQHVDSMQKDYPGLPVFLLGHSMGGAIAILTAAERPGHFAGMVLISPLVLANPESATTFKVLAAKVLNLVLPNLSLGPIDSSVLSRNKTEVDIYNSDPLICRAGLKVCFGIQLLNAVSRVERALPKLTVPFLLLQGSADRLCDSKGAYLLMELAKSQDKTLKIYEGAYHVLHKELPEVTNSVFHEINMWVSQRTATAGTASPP
# Assay: 2-AG assay: MAGL inhibitory activity by hydrolysis of 2-arachidonoylglycerol to arachidonic acid, followed by mass spectrometry
# Type: biochemical
# Conditions: 8 μM 2-arachidonoylglycerol, 15 min preincubation, 30 min reaction at RT, RapidFire MS readout
# Procedure, shortened: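 MAGL was preincubated 15 min at RT with compound (12.5 to […], 3-fold steps) in 50 mM TRIS, 1 mM EDTA, 0.01% Tween-20, 2.5% DMSO. The reaction ran 30 min at RT with 8 μM 2-AG. Arachidonic acid was quantified by RapidFire SPE-MS/MS against a d8-arachidonic acid internal standard.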
row,Compound,IC50
1,O=C(N1CC2(CC(Cc3nc(C(F)(F)F)cs3)C2)C1)N1CC2(CC(c3nc(C4(O)CC4)n[nH]3)C2)C1 [compound 536],3.93 nM
2,Cn1cc(OC2CC3(C2)CN(C(=O)N2CC4(CC(c5nc(C6CC6)n[nH]5)C4)C2)C3)cn1 [compound 542],81.9 nM
3,O=C(N1CC2(CC(Cc3cncc(C(F)(F)F)c3)C2)C1)N1CC2(CC(c3nc(C4CC(F)(F)C4)n[nH]3)C2)C1 [compound 545],46.9 nM
4,N#Cc1cc(CC2CC3(C2)CN(C(=O)N2CC4(CC(c5nc(C6CC(F)(F)C6)n[nH]5)C4)C2)C3)ccc1C(F)(F)F [compound 547],5.86 nM
5,O=C(N1CC2(CC(c3nc(C4CC4)n[nH]3)C2)C1)N1CC2(CCN(Cc3cccc(S(=O)(=O)C(F)(F)F)c3)C2)C1 [compound 549],0.66 nM
6,CCn1nc(C(F)(F)F)cc1CN1CC2(C1)CN(C(=O)N1CC3(CC(c4nc(C5CC5)n[nH]4)C3)C1)C2 [compound 553],4.55 nM
7,O=C(N1CC2(CC(c3nc(C4CC4)n[nH]3)C2)C1)N1CC2(CN(Cc3ccc(S(=O)(=O)C(F)(F)F)cc3F)C2)C1 [compound 554],0.56 nM
8,N=S(=O)(c1ccc(CC2CC3(C2)CN(C(=O)N2CC4(CC(c5nc(C6(O)CC6)n[nH]5)C4)C2)C3)cc1)C(F)(F)F (stereo not shown) [compound 555],0.34 nM
9,N#Cc1cc(C(F)(F)F)ccc1CC1CC2(C1)CN(C(=O)N1CC3(CC(c4nnc(C5CC5)[nH]4)C3)C1)C2 [compound 556],0.45 nM
10,O=C(N1CC(C23CC(c4nnc(C5(C(F)(F)F)CC5)s4)(C2)C3)C1)N1CC2(CC(c3nc(C4CC4)n[nH]3)C2)C1 [compound 557],12.4 nM
11,O=C(N1CC2(CC(Cc3cncc(S(=O)(=O)C(F)(F)F)c3)C2)C1)N1CC2(CC(c3nc(C4(O)CC4)n[nH]3)C2)C1 [compound 560],1.25 nM
12,CS(=O)(=O)c1cc(Cl)ccc1C12CC(C3CN(C(=O)N4CC5(CC(c6nnc(C7CC7)[nH]6)C5)C4)C3)(C1)C2 [compound 562],0.2 nM
13,O=C(N1CC(c2ccc(C3(C(F)(F)F)CC3)cc2)C1)N1CC2(CC(c3nc(C4CC(F)(F)C4)n[nH]3)C2)C1 [compound 563],12.7 nM
14,N=S(=O)(c1ccc(C2CN(C(=O)N3CC4(CC(c5nc(C6(F)CC6)n[nH]5)C4)C3)C2)cc1)C(F)(F)F (stereo not shown) [compound 564],0.86 nM
15,O=C(N1CC2(CC(Cc3cnc(C(F)(F)F)nc3)C2)C1)N1CC2(CC(c3nc(C4(F)CC4)n[nH]3)C2)C1 [compound 565],1.04 nM
16,O=C(N1CC2(CC(c3nc(C4CC4)n[nH]3)C2)C1)N1CC2(CN(Cc3cnn(CC(F)(F)F)c3)C2)C1 [compound 568],408 nM

row,Compound,IC50
1,N#Cc1ccc(CC2CC3(C2)CN(C(=O)N2CC4(CC(c5nc(C6(F)CC6)n[nH]5)C4)C2)C3)cc1C(F)(F)F [compound 569],0.09 nM
2,O=C(N1CC2(CC(Cc3cn(CC(F)(F)F)nc3C(F)(F)F)C2)C1)N1CC2(CC(c3nc(C4CC4)n[nH]3)C2)C1 [compound 571],0.55 nM
3,O=C(N1CC2(CC(c3nc(C4CC4)n[nH]3)C2)C1)N1CC2(CN(Cc3cccn(CC(F)(F)F)c3=O)C2)C1 [compound 572],184 nM
4,O=C(N1CC(C23CC(c4nnc(C5(C(F)(F)F)CC5)o4)(C2)C3)C1)N1CC2(CC(c3nc(C4(O)CC4)n[nH]3)C2)C1 [compound 573],904 nM
5,N#Cc1cc(CC2CC3(C2)CN(C(=O)N2CC4(CC(c5nc(C6CC(F)(F)C6)n[nH]5)C4)C2)C3)cc(C(F)(F)F)c1 [compound 579],24 nM
6,CC(C)(C)Cc1nnc(C23CC(C4CN(C(=O)N5CC6(CC(c7nc(C8CC8)n[nH]7)C6)C5)C4)(C2)C3)s1 [compound 581],2.22 nM
7,CS(=O)(=O)c1ccc(CC2CC3(C2)CN(C(=O)N2CC4(CC(c5nc(C6CC(F)(F)C6)n[nH]5)C4)C2)C3)cc1 [compound 582],167 nM
8,CC(C)(C)Cc1nnc(C23CC(C4CN(C(=O)N5CC6(CC(c7nc(C8CC(F)(F)C8)n[nH]7)C6)C5)C4)(C2)C3)s1 [compound 583],295 nM
9,Cc1cc(C2CC2)n(C23CC(C4CN(C(=O)N5CC6(CC(c7nc(C8CC8)n[nH]7)C6)C5)C4)(C2)C3)n1 [compound 587],2.4 nM
10,O=C(N1CC2(CC(Cc3cc(C(F)(F)F)n[nH]3)C2)C1)N1CC2(CC(c3nc(C4(O)CC4)n[nH]3)C2)C1 [compound 589],0.59 nM
11,N#Cc1ccc(CC2CC3(C2)CN(C(=O)N2CC4(CC(c5nc(C6CC6)n[nH]5)C4)C2)C3)cc1C(F)(F)F [compound 590],0.34 nM
12,CC(C)(C)c1conc1CN1CC2(C1)CN(C(=O)N1CC3(CC(c4nc(C5CC5)n[nH]4)C3)C1)C2 [compound 591],3.64 nM
13,O=C(N1CC2(CC(c3nc(C4CC4)n[nH]3)C2)C1)N1CC2(CC[C@H](Cc3cccc(S(=O)(=O)C(F)(F)F)c3)C2)C1 [compound 594],0.02 nM
14,Cc1cc(C23CC(C4CN(C(=O)N5CC6(CC(c7nc(C8CC8)n[nH]7)C6)C5)C4)(C2)C3)[nH]n1 [compound 595],3.63 nM
15,O=C(N1CC2(CC(c3nc(C4(F)CC4)n[nH]3)C2)C1)N1CC2(CN(Cc3ncc(C(F)(F)F)s3)C2)C1 [compound 598],1.89 nM

# More lines, in order of falling IC50, values ahead:
row,IC50,Compound
1,1450 nM,O=C(N1CC2(CC(c3nc(C4CC(F)(F)C4)n[nH]3)C2)C1)N1CC2(CN(Cc3cc(C(F)(F)F)ns3)C2)C1 [compound 561]
2,1110 nM,O=C(N1CC2(CC(c3nc(C4CC4)n[nH]3)C2)C1)N1CC2(CN(Cc3ccc(=O)[nH]c3)C2)C1 [compound 541]
3,679 nM,Cn1ncc(CN2CC3(C2)CN(C(=O)N2CC4(CC(c5nc(C6CC6)n[nH]5)C4)C2)C3)c1S(N)(=O)=O [compound 580]
4,357 nM,O=C(N1CC2(CC(c3nc(C4CC(F)(F)C4)n[nH]3)C2)C1)N1CC2(CN(Cc3ncc(C(F)(F)F)s3)C2)C1 [compound 596]
5,237 nM,Cn1cnc(C#N)c1CN1CC2(C1)CN(C(=O)N1CC3(CC(c4nc(C5CC5)n[nH]4)C3)C1)C2 [compound 537]
6,140 nM,O=C(N1CC2(CC(c3nc(C4CC4)n[nH]3)C2)C1)N1CC2(CN(Cc3nnn(CC(F)(F)F)n3)C2)C1 [compound 546]
7,135 nM,O=C(N1CC2(CC(c3nc(C4CC4)n[nH]3)C2)C1)N1CC2(CN(Cc3ccnn3CC(F)F)C2)C1 [compound 597]
8,65.4 nM,O=C(N1CC2(CCC(Cc3ccc(C(F)(F)F)cn3)CC2)C1)N1CC2(CC(c3nc(C4CC(F)(F)C4)n[nH]3)C2)C1 [compound 574]
9,40.4 nM,Cc1cc(C2CC2)n(C23CC(C4CN(C(=O)N5CC6(CC(c7nc(C8(O)CC8)n[nH]7)C6)C5)C4)(C2)C3)n1 [compound 588]
10,35.8 nM,O=C(N1CC(C23CC(Cc4ccc(C(F)(F)F)nc4)(C2)C3)C1)N1CC2(CC(c3nc(C4(O)CC4)n[nH]3)C2)C1 [compound 570]
11,26.2 nM,O=C(N1CC(C23CC(Oc4cnc(C(F)(F)F)cn4)(C2)C3)C1)N1CC2(CC(c3nc(C4(O)CC4)n[nH]3)C2)C1 [compound 552]
12,14.7 nM,O=C(N1CC2(CC(Cc3ccc(OC(F)(F)F)nc3)C2)C1)N1CC2(CC(c3nc(C4CC(F)(F)C4)n[nH]3)C2)C1 [compound 566]
13,9.81 nM,O=C(N1CC2(CCC(S(=O)(=O)c3ccc(C(F)(F)F)cc3)CC2)C1)N1CC2(CC(c3nc(C4(O)CC4)n[nH]3)C2)C1 [compound 550]
14,9.25 nM,Cn1nc(C(F)(F)F)cc1CN1CCC2(CC1)CN(C(=O)N1CC3(CC(c4nc(C5CC5)n[nH]4)C3)C1)C2 [compound 539]
15,8.72 nM,O=C(N1CC2(CCN(Cc3cc(C(F)(F)F)on3)CC2)C1)N1CC2(CC(c3nc(C4CC4)n[nH]3)C2)C1 [compound 544]
16,5.47 nM,O=C(N1CC2(CC(Cc3ccc(F)cc3F)C2)C1)N1CC2(CC(c3nc(C4CC(F)(F)C4)n[nH]3)C2)C1 [compound 586]
17,4.02 nM,N=S(=O)(c1cccc(OC(F)(F)F)c1)C1CC2(C1)CN(C(=O)N1CC3(CC(c4nnc(C5CC5)[nH]4)C3)C1)C2 (stereo not shown) [compound 575]
18,1.38 nM,Cn1ncc(OC2CC3(C2)CN(C(=O)N2CC4(CC(c5nc(C6CC6)n[nH]5)C4)C2)C3)c1C(F)(F)F [compound 592]
19,1.36 nM,O=C(N1CC(C23CC(Nc4cnc(C(F)(F)F)cn4)(C2)C3)C1)N1CC2(CC(c3nc(C4(O)CC4)n[nH]3)C2)C1 [compound 593]
20,0.84 nM,O=C(N1CC2(CC(c3nc(C4(O)CC4)n[nH]3)C2)C1)N1CC2(CC[C@@H](Cc3ccc(S(=O)(=O)C(F)(F)F)cc3)C2)C1 [compound 599]
21,0.6 nM,N=S(=O)(c1ccc(CC2CC3(C2)CN(C(=O)N2CC4(CC(c5nc(C6(O)CC6)n[nH]5)C4)C2)C3)cc1)C(F)(F)F (stereo not shown) [compound 558]
22,0.51 nM,O=C(N1CC(C23CC(NCC4(C(F)(F)F)CC4)(C2)C3)C1)N1CC2(CC(c3nc(C4(F)CC4)n[nH]3)C2)C1 [compound 578]
23,0.48 nM,O=C(N1CC2(CC(c3nc(C4CC4)n[nH]3)C2)C1)N1CC2(CN(Cc3ccc(C(F)(F)F)cc3F)C2)C1 [compound 584]
24,0.18 nM,O=C(N1CC(C23CC(c4ccc(OC(F)(F)F)cc4)(C2)C3)C1)N1CC2(CC(c3nc(C4(O)CC4)n[nH]3)C2)C1 [compound 551]
25,0.06 nM,N#Cc1cc(CC2CC3(C2)CN(C(=O)N2CC4(CC(c5nc(C6(F)CC6)n[nH]5)C4)C2)C3)ccc1C(F)(F)F [compound 585]
26,0.05 nM,O=C(N1CC(C23CC(c4ccc(S(=O)(=O)C(F)(F)F)cc4)(C2)C3)C1)N1CC2(CC(c3nc(C4CC4)n[nH]3)C2)C1 [compound 540]
27,0.02 nM,O=C(N1CC2(CC(c3nc(C4CC4)n[nH]3)C2)C1)N1CC2(CC[C@@H](Cc3cccc(S(=O)(=O)C(F)(F)F)c3)C2)C1 [compound 543]

# — patent US20250099448A1, “HETEROCYCLIC COMPOUNDS” (Hoffmann-La Roche Inc., priority 2022, published 2025)
